Results reported in the supplement of paper PMC10307832.

Assays:
Experiment in all cases: relative viability (nuclei count vs DMSO), 5 days (fraction); higher = more cells survive
[1] = compound: CN(C)CC1=CC(=CC=C1)N=C(C2=CC=CC=C2)C3=C(NC4=C3C=CC(=C4)C(=O)N(C)C)O + CC(=O)Nc1cccc(-n2c(=O)n(C3CC3)c(=O)c3c(Nc4ccc(I)cc4F)n(C)c(=O)c(C)c32)c1 [Trametinib] (partner 0.02 µM)
Outline: (§1)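 The day after seeding in 1536-well plates, lung cancer cell lines were treated by pin tool with a single drug, or with a fixed anchor-drug dose together with five library-drug doses (not always all listed) in √10 steps. After 5 days, a combined fix-and-stain solution (final 0.05% Triton X-100, 1% formaldehyde, 1 ug/ml Hoechst) was added. Nuclei counted on 4× images gave relative viability as treated counts over vehicle counts, reported as the median of duplicate plates.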

[2] = compound: CN(C)CC1=CC(=CC=C1)N=C(C2=CC=CC=C2)C3=C(NC4=C3C=CC(=C4)C(=O)N(C)C)O + CC1(C)CCC(c2ccc(Cl)cc2)=C(CN2CCN(c3ccc(C(=O)NS(=O)(=O)c4ccc(N[C@H](CCN5CCOCC5)CSc5ccccc5)c(S(=O)(=O)C(F)(F)F)c4)cc3)CC2)C1 [Navitoclax] (partner 0.5 µM)
Outline: as §1

[3] = compound: CN(C)CC1=CC(=CC=C1)N=C(C2=CC=CC=C2)C3=C(NC4=C3C=CC(=C4)C(=O)N(C)C)O + N=C(N)NC(=N)NCCc1ccccc1 [Phenformin] (partner 250 µM)
Outline: as §1

[4] = compound: CN(C)CC1=CC(=CC=C1)N=C(C2=CC=CC=C2)C3=C(NC4=C3C=CC(=C4)C(=O)N(C)C)O + Nc1nc2[nH]cc(CCc3ccc(C(=O)N[C@@H](CCC(=O)O)C(=O)O)cc3)c2c(=O)[nH]1 [Pemetrexed] (partner 0.2 µM)
Outline: as §1

| Cell Line | relative viability ([1]; first compound 0.08 µM) | relative viability ([1]; first compound 0.253 µM) | relative viability ([1]; first compound 0.8 µM) | relative viability ([1]; first compound 2.53 µM) | relative viability ([1]; first compound 8 µM) | relative viability ([2]; first compound 0.08 µM) | relative viability ([2]; first compound 0.253 µM) | relative viability ([2]; first compound 0.8 µM) | relative viability ([2]; first compound 2.53 µM) | relative viability ([2]; first compound 8 µM) | relative viability ([3]; first compound 0.08 µM) | relative viability ([3]; first compound 0.253 µM) | relative viability ([3]; first compound 0.8 µM) | relative viability ([3]; first compound 2.53 µM) | relative viability ([3]; first compound 8 µM) | relative viability ([4]; first compound 0.08 µM) | relative viability ([4]; first compound 0.253 µM) | relative viability ([4]; first compound 0.8 µM) | relative viability ([4]; first compound 2.53 µM) | relative viability ([4]; first compound 8 µM) |
| --- | --- | --- | --- | --- | --- | --- | --- | --- | --- | --- | --- | --- | --- | --- | --- | --- | --- | --- | --- | --- |
| HCC-827 | 0.541 | 0.491 | 0.429 | 0.495 | 0.49 | 1.04 | 1.02 | 1.06 | 1 | 0.941 | 0.374 | 0.404 | 0.323 | 0.396 | 0.356 | 0.266 | 0.241 | 0.25 | 0.229 | 0.269 |
| NCI-H322M | 0.49 | 0.497 | 0.477 | 0.487 | 0.468 | 1.18 | 1.13 | 1.07 | 1.06 | 1.15 | 0.685 | 0.801 | 0.669 | 0.631 | 0.551 | 0.556 | 0.6 | 0.612 | 0.565 | 0.527 |
| UMC-11 | 0.836 | 0.674 | 0.716 | 0.576 | 0.742 | 0.357 | 0.269 | 0.264 | 0.328 | 0.32 | 0.332 | 0.311 | 0.309 | 0.301 | 0.253 | 0.779 | 0.752 | 0.839 | 0.714 | 0.736 |
| EPLC-272H | 0.335 | 0.318 | 0.289 | 0.304 | 0.266 | 1.35 | 1.08 | 0.913 | 1.14 | 1.11 | 0.323 | 0.283 | 0.226 | 0.302 | 0.347 | 0.355 | 0.345 | 0.284 | 0.314 | 0.398 |
| NCI-H1666 | 0.966 | 0.879 | 0.73 | 0.85 | 0.928 | 0.983 | 1.14 | 1.02 | 1.07 | 1.1 | 0.569 | 0.579 | 0.615 | 0.58 | 0.585 | 0.774 | 0.909 | 0.825 | 0.886 | 1.01 |
| LU99A | 0.504 | 0.499 | 0.571 | 0.482 | 0.411 | 0.827 | 0.581 | 0.879 | 0.781 | 0.882 | 0.737 | 0.874 | 0.862 | 0.655 | 0.757 | 0.171 | 0.173 | 0.228 | 0.156 | 0.185 |
| HARA | 0.715 | 0.632 | 0.622 | 0.59 | 0.84 | 1.14 | 1.14 | 1.18 | 1.15 | 1.13 | 0.413 | 0.454 | 0.384 | 0.412 | 0.373 | 0.214 | 0.234 | 0.203 | 0.291 | 0.228 |
| NCI-H1355 | 0.472 | 0.407 | 0.314 | 0.392 | 0.51 | 1.01 | 0.87 | 0.836 | 0.93 | 0.866 | 0.483 | 0.463 | 0.421 | 0.421 | 0.392 | 1.03 | 0.991 | 0.926 | 0.949 | 1.02 |
